Assays:
BTK [1] = molecular target: T1, BTK (Homo sapiens, UniProt Q06187); test: Assay to determine BTK inactivation rate (active site probe ELISA, human whole blood); type: cell-based; design: tissue StemExpress; host or cells: human whole blood; conditions: 37° C., 5-60 minutes, read-out: BTK hWB (Kinact/Ki)
Method: This example employed a BTK active site probe-based assay using a biotinylated covalent inhibitor in human and mouse blood or mouse brain lysate.
Human whole blood was obtained from StemExpress (Stockton, CA) and kept at ambient temperature until the time of the experiment, which was approximately 24 hours after it had been collected. • 1. A 1× lysis buffer was prepared by using 10× lysis buffer (Cell Signaling Technology, #9083S, Danvers, MA), molecular biology grade water, 100× Halt Protease and Phosphatase Inhibitor Cocktail, (ThermoFisher, #78440, Waltham, MA), and BTK active site probe (final: 0.4 μM). This was prepared fresh each experimental day. • 2. Lysis buffer was added in the volume of 30 μL to all wells in a V-bottom plate (Greiner Bio-One, #651261, Monroe, NC) in preparation for timepoint collections. • 3. Compounds were reconstituted to stocks of 10 mM in 100% DMSO and were diluted in 2-fold serial dilutions to generate an 8-point curve in DMSO, with the last point being DMSO only. • 4. A working 10× dilution series was created using 1 μL of the prepared DMSO titration into […] 1×PBS in order to keep the DMSO constant (0.03% DMSO final). • 5. The whole blood was added in the volume of 225 μL per well in a new 96 w v-bottom plate. • 6. For compound treatment, 25 μL of the 10× dilution series in PBS was added to the 225 μL whole blood, followed by briefly pipetting up and down, twice. • 7. The plates were then covered with plastic lids and incubated at 37° C. for 5, 10, 15, 30, 60 minutes. • 8. At each timepoint, 30 μL of compound- or DMSO (vehicle)-treated blood is pulled from each column and added to preloaded collection plates that contained 30 μL of lysis buffer supplemented with BTK active site probe. Samples were then mixed briefly by pipetting up and down, twice. • 9. The plates with collected and lysed samples were shaken and covered with sealing film on a rotator for 60 minutes at room temperature. These samples were used fresh for detection via ELISA, and remaining sample was frozen at −80° C. if a repeat was necessary. Determining Amount of Unoccupied BTK Using ELISA • 1. All streptavidin pre-coated plates (R&D Systems, #CP004, Minneapolis, MN) were brought to room temperature while samples are lysing. • 2. Assay Buffer 1, 1×PBS+0.05% Tween 20+1% BSA was prepared, filtered, and stored at 4° C. when not in use. • 3. Using this Assay Buffer 1, assay buffer+1× protease/phosphatase inhibitor cocktail (PICS) was prepared in the amount needed for all samples. • 4. Assay Buffer+PICS in the volume of 90 μL/well was added to the ELISA plate for blood samples. • 5. Assay Buffer+PICs in the volume of 50 μL/well was added to the ELISA plate for brain samples. • 6. Lysed blood sample (10 μL) was added to the ELISA plate. • 7. Lysed brain sample (50 μL) was added to the ELISA plate. • 8. Samples were loaded into the ELISA plate for a total of 100 μL/well, in duplicate, and remained in the plate, sealed, overnight at 4° C. • 9. The following day, the plate was washed three times with 1× Wash Buffer (1×PBS+0.05% Tween 20) at 250 μL/well using a plate washer. • 10. The plate was inverted to expel all fluid each time and blotted on clean paper towels to remove remaining liquid. • 11. Assay Buffer 2 was prepared (1×PBS+0.05% Tween 20+0.5% BSA) and kept at 4° C. when not in use. • 12. The primary antibody α-BTK (clone D3H5, Cell Signaling Technology #8547S Danvers, MA) was diluted 1:500 in Assay Buffer 2. • 13. Diluted a-BTK antibody was added at 100 μL/well. • 14. The plate was covered with adhesive film and incubated for 90 minutes at room temperature. • 15. The plate was washed three times with 1× Wash Buffer at 250 μL/well using a plate washer. • 16. The plate was inverted to expel all fluid each time and blotted on clean paper towels to remove remaining liquid. • 17. The detection antibody (Jackson Immuno Research, #711-005-152) was diluted 1:2,500 with Assay Buffer 2. • 18. The diluted antibody was added at 100 μL/well. • 19. […]

BTK [2] = molecular target: T1, BTK; test: BTK IC50 (EZ reader kinase assay); type: biochemical; design: purchased Carna; conditions: ATP 1 mM, BTK 2 nM, 90 minutes at room temperature
Method: Solutions of compounds (test or control) in DMSO were prepared at the desired concentrations, and serially diluted to 11 concentrations by 3-fold dilution in 384pp-plate using TECAN EVO200. 20 nL of stock were transferred to 384 plate using Echo550. DMSO was used as vehicle control.
Two separate solutions were prepared—an ATP solution containing MgCl2 (10 mM), Brij-35 (0.01%), DTT (2 mM), BSA (0.05%), EGTA (1 mM), HEPE (pH7.5) (50 mM), FLPeptide (6 uM) and ATP (4 mM); and a BTK solution containing MgCl2 (10 mM), Brij-35 (0.01%), DTT (2 mM), BSA (0.05%), EGTA (1 mM), HEPE (pH7.5) (50 mM) and BTK (2.67 nM). (BTK was obtained from Carna; FLPeptide2 was obtained from PerkinElmer and Ibrutinib was obtained from Selleck.) 5 uL of ATP solution were added to each well, followed by addition of 15 uL of BTK solution to initiate the reaction. (Note the final volume of each well was 20 uL containing MgCl2 (10 mM), Brij-35 (0.01%), DTT (2 mM), BSA (0.05%), EGTA (1 mM), HEPE (pH7.5) (50 mM), FLPeptide (1.5 uM), ATP (1 mM) and BTK (2 nM). The plates were incubated at room temperature for 90 minutes and then stopping buffer added (75 uL, containing 0.5 M EDTA) to terminate the reaction. Samples from each well were analyzed using EZ reader.
The % remaining activity was calculated using read conversion ratio (CR) according to the equation: […]
XLFit (equation 201) was used to calculate IC50's by floating both bottom and top.
BTK IC50 values are provided in Table 5, for the compounds described in Examples 1-13, wherein: • “A” denotes an IC50<1 nM; • “B” denotes an IC50 1-10 nM; and • “C” denotes an IC50>10 nM.

T1 sequence (Q06187 whole entry): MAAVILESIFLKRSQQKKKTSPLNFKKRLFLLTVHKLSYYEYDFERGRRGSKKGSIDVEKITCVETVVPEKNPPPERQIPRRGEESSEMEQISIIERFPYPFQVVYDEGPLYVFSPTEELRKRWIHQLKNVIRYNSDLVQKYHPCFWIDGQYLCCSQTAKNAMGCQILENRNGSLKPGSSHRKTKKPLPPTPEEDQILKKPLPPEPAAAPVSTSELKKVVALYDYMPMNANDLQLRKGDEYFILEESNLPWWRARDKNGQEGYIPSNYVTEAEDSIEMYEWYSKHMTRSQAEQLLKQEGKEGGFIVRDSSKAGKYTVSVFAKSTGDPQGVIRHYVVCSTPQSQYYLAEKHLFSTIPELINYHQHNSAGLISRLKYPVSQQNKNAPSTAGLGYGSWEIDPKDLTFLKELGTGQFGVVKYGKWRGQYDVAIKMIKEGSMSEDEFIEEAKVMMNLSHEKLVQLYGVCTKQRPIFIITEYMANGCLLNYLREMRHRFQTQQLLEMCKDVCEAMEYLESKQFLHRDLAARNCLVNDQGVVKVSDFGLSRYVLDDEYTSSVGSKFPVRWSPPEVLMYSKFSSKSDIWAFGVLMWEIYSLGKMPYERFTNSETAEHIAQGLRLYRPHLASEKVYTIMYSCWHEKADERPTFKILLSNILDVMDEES

Row | kinact/KI (BTK [1]) | IC50 (BTK [2]) | SMILES
1 | < 8330 M⁻¹ s⁻¹ | 1 to 10 nM | CC#CC(=O)N[C@@H]1CCC=C(c2c(F)cc(C(N)=O)c3[nH]c(C)c(Cl)c23)C1 [1A(R), (R)-4-(5-(but-2-ynamido)cyclohex-1-en-1-yl)-3-chloro-5-fluoro-2-methyl-1H-indole-7-carboxamide]
2 | < 8330 M⁻¹ s⁻¹ | < 1 nM | CC#CC(=O)N[C@H]1CCC=C(c2c(F)cc(C(N)=O)c3[nH]c(C)c(Cl)c23)C1 [1A(S), (S)-4-(5-(but-2-ynamido)cyclohex-1-en-1-yl)-3-chloro-5-fluoro-2-methyl-1H-indole-7-carboxamide]
3 | < 8330 M⁻¹ s⁻¹ | 1 to 10 nM | CC#CC(=O)N[C@@H]1CCC=C(c2c(F)c(F)c(C(N)=O)c3[nH]c(C)c(Cl)c23)C1 [2A(R), (R)-4-(5-(but-2-ynamido)cyclohex-1-en-1-yl)-3-chloro-5,6-difluoro-2-methyl-1H-indole-7-carboxamide]
4 | > 16700 M⁻¹ s⁻¹ | < 1 nM | CC#CC(=O)N[C@H]1CCC=C(c2c(F)c(F)c(C(N)=O)c3[nH]c(C)c(Cl)c23)C1 [2A(S), (S)-4-(5-(but-2-ynamido)cyclohex-1-en-1-yl)-3-chloro-5,6-difluoro-2-methyl-1H-indole-7-carboxamide]
5 | > 16700 M⁻¹ s⁻¹ | < 1 nM | CC#CC(=O)N[C@H]1CCC=C(c2c(F)cc(C(N)=O)c3[nH]c(C)c(C)c23)C1 [3A(S), (S)-4-(5-(but-2-ynamido)cyclohex-1-en-1-yl)-5-fluoro-2,3-dimethyl-1H-indole-7-carboxamide]
6 | > 16700 M⁻¹ s⁻¹ | 1 to 10 nM | CC#CC(=O)N[C@@H]1C=C(c2c(F)cc(C(N)=O)c3[nH]c(C)c(C)c23)CCC1 [3B(S), (S)-4-(3-(but-2-ynamido)cyclohex-1-en-1-yl)-5-fluoro-2,3-dimethyl-1H-indole-7-carboxamide]
7 | < 8330 M⁻¹ s⁻¹ | 1 to 10 nM | CC#CC(=O)N[C@@H]1C=C(c2c(F)cc(C(N)=O)c3[nH]c(C)c(Cl)c23)CCC1 [5B(S), (S)-4-(3-(but-2-ynamido)cyclohex-1-en-1-yl)-3-chloro-5-fluoro-2-methyl-1H-indole-7-carboxamide]
8 | < 8330 M⁻¹ s⁻¹ | 1 to 10 nM | CC#CC(=O)N[C@H]1CCC[C@@H](c2c(F)cc(C(N)=O)c3[nH]c(C)c(Cl)c23)C1 [6-(1R,3S), 4-((1R,3S)-3-(but-2-ynamido)cyclohexyl)-3-chloro-5-fluoro-2-methyl-1H-indole-7-carboxamide]
9 | 8330 to 16700 M⁻¹ s⁻¹ | 1 to 10 nM | CC#CC(=O)N[C@H]1CCC[C@H](c2c(F)cc(C(N)=O)c3[nH]c(C)c(Cl)c23)C1 [6-(1S,3S), 4-((1S,3S)-3-(but-2-ynamido)cyclohexyl)-3-chloro-5-fluoro-2-methyl-1H-indole-7-carboxamide]
10 | < 8330 M⁻¹ s⁻¹ | 1 to 10 nM | CC#CC(=O)N[C@H]1CCC[C@H](c2c(F)cc(C(N)=O)c3[nH]c(C)c(C)c23)C1 [10-(1S,3S), 4-((1S,3S)-3-(but-2-ynamido)cyclohexyl)-5-fluoro-2,3-dimethyl-1H-indole-7-carboxamide]
11 | < 8330 M⁻¹ s⁻¹ | 1 to 10 nM | CC#CC(=O)N[C@@H]1CCC[C@@H](c2c(F)c(F)c(C(N)=O)c3[nH]c(C)c(Cl)c23)C1 [11-(1R,3R), 4-[(1R,3R)-3-(but-2-ynoylamino)cyclohexyl]-3-chloro-5,6-difluoro-2-methyl-1H-indole-7-carboxamide]
12 | < 8330 M⁻¹ s⁻¹ | 1 to 10 nM | CC#CC(=O)N[C@H]1CC[C@@H](c2c(F)cc(C(N)=O)c3[nH]c(C)c(C)c23)C1 [12-(1R,3S), 4-((1R,3S)-3-(but-2-ynamido)cyclopentyl)-5-fluoro-2,3-dimethyl-1H-indole-7-carboxamide]
13 | 8330 to 16700 M⁻¹ s⁻¹ | 1 to 10 nM | CC#CC(=O)N[C@@H]1CCC[C@@H](c2c(F)c(F)c(C(N)=O)c3[nH]c(C)c(C#N)c23)C1 [Compound 7-(1R,3R), 4-((1R,3R)-3-(but-2-ynamido)cyclohexyl)-3-cyano-5,6-difluoro-2-methyl-1H-indole-7-carboxamide]
14 | < 8330 M⁻¹ s⁻¹ | 1 to 10 nM | CC#CC(=O)N[C@H]1CCC[C@@H](c2c(F)c(F)c(C(N)=O)c3[nH]c(C)c(C#N)c23)C1 [Compound 7-(1R,3S), 4-((1R,3S)-3-(but-2-ynamido)cyclohexyl)-3-cyano-5,6-difluoro-2-methyl-1H-indole-7-carboxamide]
15 | < 8330 M⁻¹ s⁻¹ | 1 to 10 nM | CC#CC(=O)N[C@H]1CCC[C@@H](c2c(F)c(F)c(C(N)=O)c3[nH]c(C)c(Cl)c23)C1 [Compound 11-(1R,3S), 4-((1R,3S)-3-(but-2-ynamido)cyclohexyl)-3-chloro-5,6-difluoro-2-methyl-1H-indole-7-carboxamide]
16 | < 8330 M⁻¹ s⁻¹ | 1 to 10 nM | CC#CC(=O)N[C@@H]1CC[C@@H](c2c(F)cc(C(N)=O)c3[nH]c(C)c(C)c23)C1 [Compound 13-(1R,3R), 4-((1R,3R)-3-(but-2-ynamido)cyclopentyl)-5-fluoro-2,3-dimethyl-1H-indole-7-carboxamide]
